In US20110268757A1, “USE OF PHENOL-SOLUBLE MODULINS FOR VACCINE DEVELOPMENT” (INSTITUT PASTEUR, priority 2008, published 2011):

What was measured:
[1] = test system: IFN-γ producing cells in the presence of the peptide E7(49-57); assay: ELISPOT of IFN-γ producing cells against peptide E7(49-57) after immunization; assay type: in vivo, C57BL6 mice; conditions: 5 nmoles peptide with 50 μg poly I:C, seven days after immunization
Method: C57BL6 mice were intravenously immunized with 5 nmoles of the indicated peptides in combination with 50 μg of the TLR3 ligand poly I:C. For the analysis of the IFN-γ producing cells in the presence of the peptide E7(49-57) and induced in vivo by the immunizations, the animals were sacrificed 7 days after the immunizations and ELISPOT experiments were conducted using a BD-pharmingen kit (San Diego, Calif.) as indicated above and using peptide E7(49-57) as an antigen.

[2] = test system: TC-1 tumor cells (expressing the E7 protein of the HPV-16 virus); assay: Treatment of mice carrying TC1 subcutaneous tumors; assay type: in vivo, C57B/6 mice; conditions: TC1 tumors of 8 mm diameter, i.v. peptide plus 50 μg/ml poly I:C, second immunization seven days later
Method: The C57B/6 mice were subcutaneously injected with 5×10^5 TC-1 tumor cells (expressing the E7 protein of the HPV-16 virus). After 25 days, when the tumor reaches a diameter of 8 mm, the mice are intravenously treated with PBS (B), with peptide E7(49-57) plus 50 μg/ml poly I:C(C), or with peptide αMod-E7(49-57) plus 50 μg/ml poly I:C (D). Seven days later, the mice received a second immunization of the same immunogens. The tumor size, presented as the average of two perpendicular diameters, was measured at regular intervals using a gauge. The number of tumor-free mice relative to the total number of animals per group is included for each treatment.

## MADVIAKIVEIVKGLIDQFTQKRAHYNIVTF [αMod-E7(49-57)]
[1]
  response against the cytotoxic peptide E7 (49-57) (ELISPOT, IFN-γ producing cells): induces a specific cytotoxic response
[2]
  number of tumor-free (cured) mice relative to the total number of mice: 11 of 11
